pIC50: −log10 of the molar value. Values belong to the molecule of their own block, whether it stands above or below them.
System: 494315-158-R-J1-PDC complex spheroid growth, percent test/control
Assay: Anticancer human tumor 494315-158-R-J1-PDC patient-derived soft tissue sarcoma cell line growth inhibition [Asc]
Conditions: for pIC50: curve of first compound; for viability, T/C: stronger effect = lower value
Procedure, shortened: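 Tumor cells were grown as multicellular spheroids with stromal HUVEC and mesenchymal stem cells and treated singly or in combination. Concentrations fell in half-log steps from the clinical Cmax, or from 10 microM where none was known.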

[1] = second compound 0.01 µM, first compound 0.00316 µM
[2] = second compound 0.01 µM, first compound 0.01 µM
[3] = second compound 0.01 µM, first compound 0.0316 µM
[4] = second compound 0.01 µM, first compound 0.1 µM
[5] = second compound 0.0316 µM, first compound 0.00316 µM
[6] = second compound 0.0316 µM, first compound 0.01 µM
[7] = second compound 0.0316 µM, first compound 0.0316 µM
[8] = second compound 0.0316 µM, first compound 0.1 µM
[9] = second compound 0.1 µM, first compound 0.00316 µM
[10] = second compound 0.1 µM, first compound 0.01 µM
[11] = second compound 0.1 µM, first compound 0.0316 µM
[12] = second compound 0.1 µM, first compound 0.1 µM
[13] = second compound 0.316 µM, first compound 0.00316 µM
[14] = second compound 0.316 µM, first compound 0.01 µM
[15] = second compound 0.316 µM, first compound 0.0316 µM
[16] = second compound 0.316 µM, first compound 0.1 µM
[17] = second compound 1 µM, first compound 0.00316 µM
[18] = second compound 1 µM, first compound 0.01 µM
[19] = second compound 1 µM, first compound 0.0316 µM
[20] = second compound 1 µM, first compound 0.1 µM
[21] = second compound 0.01 µM, first compound 0.316 µM
[22] = second compound 0.01 µM, first compound 1 µM
[23] = second compound 0.0316 µM, first compound 0.316 µM
[24] = second compound 0.0316 µM, first compound 1 µM
[25] = second compound 0.1 µM, first compound 0.316 µM
[26] = second compound 0.1 µM, first compound 1 µM
[27] = second compound 0.316 µM, first compound 0.316 µM
[28] = second compound 0.316 µM, first compound 1 µM
[29] = second compound 1 µM, first compound 0.316 µM
[30] = second compound 1 µM, first compound 1 µM
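Also: compound exposure lasted seven days after spheroids formed for three days.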

pIC50 (second compound 0.03 µM): < 5.52
pIC50 (second compound 0.0949 µM): 5.84
pIC50 (second compound 0.3 µM): 6.04
pIC50 (second compound 0.949 µM): 6.22
pIC50 (second compound 3 µM): 6.14
SMILES: Cc1nc(N2CCC3(CC2)COC(C)C3N)c(CO)nc1Sc1ccnc(N)c1Cl (stereo not given) + CCN1C(C(=O)NC23CCC(C(=O)O)(CC2)CC3)C(c2cccc(Cl)c2F)C2(C(=O)Nc3cc(Cl)ccc32)C12CCCCC2
viability, T/C (second compound 0.03 µM, first compound 0.00949 µM): 102%
viability, T/C (second compound 0.03 µM, first compound 0.03 µM): 90.3%
viability, T/C (second compound 0.03 µM, first compound 0.0949 µM): 70.8%
viability, T/C (second compound 0.03 µM, first compound 0.3 µM): 64.2%
viability, T/C (second compound 0.03 µM, first compound 0.949 µM): 51.5%
viability, T/C (second compound 0.03 µM, first compound 3 µM): 58.4%
viability, T/C (second compound 0.0949 µM, first compound 0.00949 µM): 83.8%
viability, T/C (second compound 0.0949 µM, first compound 0.03 µM): 83.6%
viability, T/C (second compound 0.0949 µM, first compound 0.0949 µM): 72%
viability, T/C (second compound 0.0949 µM, first compound 0.3 µM): 69%
viability, T/C (second compound 0.0949 µM, first compound 0.949 µM): 59.5%
viability, T/C (second compound 0.0949 µM, first compound 3 µM): 36.4%
viability, T/C (second compound 0.3 µM, first compound 0.00949 µM): 79.6%
viability, T/C (second compound 0.3 µM, first compound 0.03 µM): 89.9%
viability, T/C (second compound 0.3 µM, first compound 0.0949 µM): 81.7%
viability, T/C (second compound 0.3 µM, first compound 0.3 µM): 68.3%
viability, T/C (second compound 0.3 µM, first compound 0.949 µM): 50.4%
viability, T/C (second compound 0.3 µM, first compound 3 µM): 37.1%
viability, T/C (second compound 0.949 µM, first compound 0.00949 µM): 89.3%
viability, T/C (second compound 0.949 µM, first compound 0.03 µM): 87.2%
viability, T/C (second compound 0.949 µM, first compound 0.0949 µM): 76.9%
viability, T/C (second compound 0.949 µM, first compound 0.3 µM): 63.4%
viability, T/C (second compound 0.949 µM, first compound 0.949 µM): 40%
viability, T/C (second compound 0.949 µM, first compound 3 µM): 37.6%
viability, T/C (second compound 3 µM, first compound 0.00949 µM): 80.9%
viability, T/C (second compound 3 µM, first compound 0.03 µM): 86%
viability, T/C (second compound 3 µM, first compound 0.0949 µM): 78.2%
viability, T/C (second compound 3 µM, first compound 0.3 µM): 62.2%
viability, T/C (second compound 3 µM, first compound 0.949 µM): 47.1%
viability, T/C (second compound 3 µM, first compound 3 µM): 32.5%

pIC50 (second compound 0.01 µM): 7.46
pIC50 (second compound 0.0316 µM): 8.50
pIC50 (second compound 0.1 µM): 9.50
pIC50 (second compound 0.316 µM): > 9.50
pIC50 (second compound 1 µM): > 9.50
SMILES: Cn1ncnc1[C@H]1c2n[nH]c(=O)c3cc(F)cc(c23)N[C@@H]1c1ccc(F)cc1 + CNC(C)C(=O)NC1CN(S(=O)(=O)c2cccc(S(=O)(=O)N3CCC4CCC(C(=O)NC(c5ccccc5)c5ccccc5)N4C(=O)C(NC(=O)C(C)NC)C3)c2)CCC2CCC(C(=O)NC(c3ccccc3)c3ccccc3)N2C1=O
viability, T/C (second compound 0.01 µM, first compound 0.000316 µM): 65.8%
viability, T/C (second compound 0.01 µM, first compound 0.001 µM): 73%
viability, T/C [1]: 59.1%
viability, T/C [2]: 53.5%
viability, T/C [3]: 49.6%
viability, T/C [4]: 46.1%
viability, T/C (second compound 0.0316 µM, first compound 0.000316 µM): 56.5%
viability, T/C (second compound 0.0316 µM, first compound 0.001 µM): 59.9%
viability, T/C [5]: 50.1%
viability, T/C [6]: 36.8%
viability, T/C [7]: 38%
viability, T/C [8]: 34.1%
viability, T/C (second compound 0.1 µM, first compound 0.000316 µM): 44.1%
viability, T/C (second compound 0.1 µM, first compound 0.001 µM): 53.4%
viability, T/C [9]: 49.6%
viability, T/C [10]: 32%
viability, T/C [11]: 33.4%
viability, T/C [12]: 31.2%
viability, T/C (second compound 0.316 µM, first compound 0.000316 µM): 49.9%
viability, T/C (second compound 0.316 µM, first compound 0.001 µM): 38.8%
viability, T/C [13]: 33.7%
viability, T/C [14]: 29.4%
viability, T/C [15]: 27.2%
viability, T/C [16]: 26.4%
viability, T/C (second compound 1 µM, first compound 0.000316 µM): 41.1%
viability, T/C (second compound 1 µM, first compound 0.001 µM): 40.1%
viability, T/C [17]: 38.5%
viability, T/C [18]: 26.9%
viability, T/C [19]: 29%
viability, T/C [20]: 22.6%

pIC50 (second compound 0.01 µM): 5.61
pIC50 (second compound 0.0316 µM): 6.42
pIC50 (second compound 0.1 µM): > 7.50
pIC50 (second compound 0.316 µM): > 7.50
pIC50 (second compound 1 µM): > 7.50
SMILES: O=C(c1cc(Cc2n[nH]c(=O)c3ccccc23)ccc1F)N1CCN(C(=O)C2CC2)CC1 + CNC(C)C(=O)NC1CN(S(=O)(=O)c2cccc(S(=O)(=O)N3CCC4CCC(C(=O)NC(c5ccccc5)c5ccccc5)N4C(=O)C(NC(=O)C(C)NC)C3)c2)CCC2CCC(C(=O)NC(c3ccccc3)c3ccccc3)N2C1=O
viability, T/C [3]: 66.3%
viability, T/C [4]: 73.2%
viability, T/C [21]: 60.3%
viability, T/C [22]: 70.3%
viability, T/C (second compound 0.01 µM, first compound 3.16 µM): 44.8%
viability, T/C (second compound 0.01 µM, first compound 10 µM): 27.5%
viability, T/C [7]: 51.8%
viability, T/C [8]: 52%
viability, T/C [23]: 52.1%
viability, T/C [24]: 43.9%
viability, T/C (second compound 0.0316 µM, first compound 3.16 µM): 41.9%
viability, T/C (second compound 0.0316 µM, first compound 10 µM): 20%
viability, T/C [11]: 41%
viability, T/C [12]: 46.4%
viability, T/C [25]: 46.3%
viability, T/C [26]: 39.1%
viability, T/C (second compound 0.1 µM, first compound 3.16 µM): 33.2%
viability, T/C (second compound 0.1 µM, first compound 10 µM): 19.8%
viability, T/C [15]: 37.2%
viability, T/C [16]: 38%
viability, T/C [27]: 42.8%
viability, T/C [28]: 35.8%
viability, T/C (second compound 0.316 µM, first compound 3.16 µM): 27.5%
viability, T/C (second compound 0.316 µM, first compound 10 µM): 14.3%
viability, T/C [19]: 33.8%
viability, T/C [20]: 39.4%
viability, T/C [29]: 40.2%
viability, T/C [30]: 31.8%
viability, T/C (second compound 1 µM, first compound 3.16 µM): 22.3%
viability, T/C (second compound 1 µM, first compound 10 µM): 13.6%

pIC50 (second compound 0.01 µM): < 6.00
pIC50 (second compound 0.0316 µM): 6.03
pIC50 (second compound 0.1 µM): < 6.00
pIC50 (second compound 0.316 µM): > 8.50
pIC50 (second compound 1 µM): > 8.50
SMILES: O=C(c1ccc(F)c(F)c1Nc1ccc(I)cc1F)N1CC(O)([C@@H]2CCCCN2)C1 + CNC(C)C(=O)NC1CN(S(=O)(=O)c2cccc(S(=O)(=O)N3CCC4CCC(C(=O)NC(c5ccccc5)c5ccccc5)N4C(=O)C(NC(=O)C(C)NC)C3)c2)CCC2CCC(C(=O)NC(c3ccccc3)c3ccccc3)N2C1=O
viability, T/C [1]: 83.5%
viability, T/C [2]: 75.5%
viability, T/C [3]: 85.8%
viability, T/C [4]: 96.7%
viability, T/C [21]: 97.3%
viability, T/C [22]: 62.9%
viability, T/C [5]: 72.8%
viability, T/C [6]: 68.3%
viability, T/C [7]: 74.3%
viability, T/C [8]: 93.1%
viability, T/C [23]: 87.8%
viability, T/C [24]: 47.9%
viability, T/C [9]: 53.2%
viability, T/C [10]: 61.4%
viability, T/C [11]: 65.8%
viability, T/C [12]: 87.5%
viability, T/C [25]: 92.7%
viability, T/C [26]: 59.9%
viability, T/C [13]: 46.7%
viability, T/C [14]: 60.3%
viability, T/C [15]: 57.2%
viability, T/C [16]: 67.5%
viability, T/C [27]: 72.2%
viability, T/C [28]: 58.3%
viability, T/C [17]: 47.9%
viability, T/C [18]: 52%
viability, T/C [19]: 67.1%
viability, T/C [20]: 66.3%
viability, T/C [29]: 76.2%
viability, T/C [30]: 46.7%
